{"source": "ChEMBL document CHEMBL5209587", "about": "“Membrane potential based assay for SLC23A1 using HEK-293 SLC23A1 OE cells” (2022)", "molecular_target": "Solute carrier family 23 member 1 (Homo sapiens) (UniProt Q9UHI7)", "sequence (Q9UHI7 whole entry)": "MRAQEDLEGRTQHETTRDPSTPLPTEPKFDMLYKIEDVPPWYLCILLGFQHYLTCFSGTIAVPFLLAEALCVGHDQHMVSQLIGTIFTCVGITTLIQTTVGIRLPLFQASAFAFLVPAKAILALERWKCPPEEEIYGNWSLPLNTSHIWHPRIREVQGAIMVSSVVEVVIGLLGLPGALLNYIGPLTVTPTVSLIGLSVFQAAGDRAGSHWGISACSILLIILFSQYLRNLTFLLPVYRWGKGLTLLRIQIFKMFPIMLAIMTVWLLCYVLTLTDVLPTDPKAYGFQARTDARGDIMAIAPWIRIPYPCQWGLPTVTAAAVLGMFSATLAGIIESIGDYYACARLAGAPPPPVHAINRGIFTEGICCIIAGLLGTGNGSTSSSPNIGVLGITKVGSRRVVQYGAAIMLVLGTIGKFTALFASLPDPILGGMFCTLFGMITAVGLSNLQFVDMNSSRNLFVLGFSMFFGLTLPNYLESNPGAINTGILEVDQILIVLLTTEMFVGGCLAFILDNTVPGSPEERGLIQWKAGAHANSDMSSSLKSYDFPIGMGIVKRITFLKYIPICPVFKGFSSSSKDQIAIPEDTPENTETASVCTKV", "assay": "Substrate uptake and inhibition of the Na(+)/L-Ascorbic Acid Transporter 1 (SVCT1, SLC23A1) as assessed by the fluorescent FLIPR membrane potential dye in HEK-293 JumpIN-SLC23A1 cells (PubChem AID: 1794810)", "format": "functional, cell-based", "conditions": "HEK293", "data": [{"smiles": "O=C(CCc1ccc(O)cc1)c1c(O)cc(O)cc1O", "values": [{"measurement": "inhibition", "result": "Inhibitor: Almost Complete Inhibition At A Concentration Of 300 Μm"}]}]}
